# Measurements taken from patent US20060252807A1, “Novel ortho-terphenyl inhibitors of p38 kinase and methods of treating inflammatory disorders” (Kalypsys, Inc., priority 2005, published 2006).
# Target: T1, active p38 alpha enzyme (Upstate Biotechnology) (Homo sapiens, UniProt Q16539)
# T1 construct: purchased Upstate Biotechnology
# Experiment: p38α biochemical assay (ATP turnover, luminescent detection, Cambrex PKlight)
# Details: p38α biochemical assay, Table 1 Biological Activity
# Method in brief: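 In this kinase reaction, p38α used MapkapK2 as phosphorylation substrate at low ATP (1.4 uM final) over 2 hours at 30C, and activity was followed as ATP turnover by luminescence.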
# T1 sequence (Q16539 whole entry): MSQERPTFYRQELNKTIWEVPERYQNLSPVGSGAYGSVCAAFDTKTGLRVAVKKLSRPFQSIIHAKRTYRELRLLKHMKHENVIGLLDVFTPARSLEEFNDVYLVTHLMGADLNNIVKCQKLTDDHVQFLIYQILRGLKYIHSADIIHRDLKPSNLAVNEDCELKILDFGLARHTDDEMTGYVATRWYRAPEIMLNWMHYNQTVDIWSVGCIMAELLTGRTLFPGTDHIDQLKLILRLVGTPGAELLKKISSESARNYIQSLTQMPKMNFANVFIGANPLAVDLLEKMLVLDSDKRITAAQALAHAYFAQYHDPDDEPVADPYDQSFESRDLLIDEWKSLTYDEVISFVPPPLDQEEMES
row,SMILES,IC50
1,CC(C)NC(=O)c1csc(-c2oc(CN3CCN(C(=O)c4cc(F)c(F)cc4Cl)CC3)nc2-c2ccc(F)cc2)n1 [Example 495],> 1000 nM
2,CC(C)NC(=O)c1csc(-c2oc(CN3CCN(C(=O)c4cc(F)c(Cl)cc4F)CC3)nc2-c2ccc(F)cc2)n1 [Example 496],> 1000 nM
3,CCN(CC)c1ccc(C(=O)N2CCN(Cc3nc(-c4ccc(F)cc4)c(-c4nc(C(=O)NC(C)C)cs4)o3)CC2)cc1 [Example 497],≤ 1000 nM
4,COc1cc(/C=C/C(=O)N2CCN(Cc3nc(-c4ccc(F)cc4)c(-c4nc(C(=O)NC(C)C)cs4)o3)CC2)ccc1O [Example 498],≤ 1000 nM
5,COc1ccc(/C=C/C(=O)N2CCN(Cc3nc(-c4ccc(F)cc4)c(-c4nc(C(=O)NC(C)C)cs4)o3)CC2)cc1O [Example 499],≤ 1000 nM
6,CCCCOc1ccc(C(=O)N2CCN(Cc3nc(-c4ccc(F)cc4)c(-c4nc(C(=O)NC(C)C)cs4)o3)CC2)cc1 [Example 500],≤ 1000 nM
7,CC(C)NC(=O)c1csc(-c2oc(CN3CCN(C(=O)c4cc5cc(Cl)ccc5o4)CC3)nc2-c2ccc(F)cc2)n1 [Example 501],> 1000 nM
8,COc1ccc([N+](=O)[O-])c(C(=O)N2CCN(Cc3nc(-c4ccc(F)cc4)c(-c4nc(C(=O)NC(C)C)cs4)o3)CC2)c1 [Example 502],> 1000 nM
9,COc1cc(C(=O)N2CCN(Cc3nc(-c4ccc(F)cc4)c(-c4nc(C(=O)NC(C)C)cs4)o3)CC2)cc(OC)c1O [Example 503],≤ 1000 nM
10,CC(C)NC(=O)c1csc(-c2oc(CN3CCN(C(=O)c4ccccc4-c4ccccc4)CC3)nc2-c2ccc(F)cc2)n1 [Example 504],≤ 1000 nM
11,CC(C)NC(=O)c1csc(-c2oc(CN3CCN(C(=O)c4cccc(Br)c4)CC3)nc2-c2ccc(F)cc2)n1 [Example 505],> 1000 nM
12,CC(C)NC(=O)c1csc(-c2oc(CN3CCN(C(=O)c4ccc(Br)cc4)CC3)nc2-c2ccc(F)cc2)n1 [Example 506],> 1000 nM
13,CC(C)NC(=O)c1csc(-c2oc(CN3CCN(C(=O)c4cccc(Cl)c4[N+](=O)[O-])CC3)nc2-c2ccc(F)cc2)n1 [Example 507],≤ 1000 nM
14,CC(C)NC(=O)c1csc(-c2oc(CN3CCN(C(=O)C4N=CC([N+](=O)[O-])=CC=C4Cl)CC3)nc2-c2ccc(F)cc2)n1 (stereo not shown) [Example 508],≤ 1000 nM
15,CC(C)NC(=O)c1csc(-c2oc(CN3CCN(C(=O)c4ccc([N+](=O)[O-])cc4Cl)CC3)nc2-c2ccc(F)cc2)n1 [Example 509],> 1000 nM
16,CC(C)NC(=O)c1csc(-c2oc(CN3CCN(C(=O)c4ccc(Cl)cc4[N+](=O)[O-])CC3)nc2-c2ccc(F)cc2)n1 [Example 510],> 1000 nM
17,CC(C)NC(=O)c1csc(-c2oc(CN3CCN(C(=O)c4ccc(Cl)c([N+](=O)[O-])c4)CC3)nc2-c2ccc(F)cc2)n1 [Example 511],> 1000 nM
18,CC(C)NC(=O)c1csc(-c2oc(CN3CCN(C(=O)c4cc(Cl)ccc4[N+](=O)[O-])CC3)nc2-c2ccc(F)cc2)n1 [Example 512],> 1000 nM
19,CC(C)NC(=O)c1csc(-c2oc(CN3CCN(C(=O)c4cccc(Br)n4)CC3)nc2-c2ccc(F)cc2)n1 [Example 513],> 1000 nM

row,SMILES,IC50
1,CC(C)NC(=O)c1csc(-c2oc(CN3CCN(C(=O)c4cncc(Br)c4)CC3)nc2-c2ccc(F)cc2)n1 [Example 514],> 1000 nM
2,CC(C)NC(=O)c1csc(-c2oc(CN3CCN(C(=O)c4cc(F)c(F)cc4[N+](=O)[O-])CC3)nc2-c2ccc(F)cc2)n1 [Example 515],≤ 1000 nM
3,CC(C)NC(=O)c1csc(-c2oc(CN3CCN(C(=O)Cc4ccc(C(F)(F)F)cc4)CC3)nc2-c2ccc(F)cc2)n1 [Example 516],≤ 1000 nM
4,CC(C)Cc1ccc(C(C)C(=O)N2CCN(Cc3nc(-c4ccc(F)cc4)c(-c4nc(C(=O)NC(C)C)cs4)o3)CC2)cc1 (stereo not shown) [Example 517],≤ 1000 nM
5,CC(C)NC(=O)c1csc(-c2oc(CN3CCN(C(=O)c4cc(Cl)c(O)c(Cl)c4)CC3)nc2-c2ccc(F)cc2)n1 [Example 518],> 1000 nM
6,CC(C)NC(=O)c1csc(-c2oc(CN3CCN(C(=O)c4c(F)c(F)c(F)c(F)c4F)CC3)nc2-c2ccc(F)cc2)n1 [Example 519],≤ 1000 nM
7,COc1cc(OC)c(C(=O)N2CCN(Cc3nc(-c4ccc(F)cc4)c(-c4nc(C(=O)NC(C)C)cs4)o3)CC2)c(OC)c1 [Example 520],≤ 1000 nM
8,COc1cc(OC)c(C(=O)N2CCN(Cc3nc(-c4ccc(F)cc4)c(-c4nc(C(=O)NC(C)C)cs4)o3)CC2)cc1OC [Example 521],≤ 1000 nM
9,COc1cc(C(=O)N2CCN(Cc3nc(-c4ccc(F)cc4)c(-c4nc(C(=O)NC(C)C)cs4)o3)CC2)cc(OC)c1OC [Example 522],> 1000 nM
10,COc1ccc(C(=O)N2CCN(Cc3nc(-c4ccc(F)cc4)c(-c4nc(C(=O)NC(C)C)cs4)o3)CC2)c(OC)c1OC [Example 523],≤ 1000 nM
11,CC(C)NC(=O)c1csc(-c2oc(CN3CCN(C(=O)c4ccccc4Cc4ccccc4)CC3)nc2-c2ccc(F)cc2)n1 [Example 524],≤ 1000 nM
12,CC(C)NC(=O)c1csc(-c2oc(CN3CCN(C(=O)c4cccc(Oc5ccccc5)c4)CC3)nc2-c2ccc(F)cc2)n1 [Example 525],> 1000 nM
13,CC(C)NC(=O)c1csc(-c2oc(CN3CCN(C(=O)c4ccccc4Oc4ccccc4)CC3)nc2-c2ccc(F)cc2)n1 [Example 526],> 1000 nM
14,CC(C)NC(=O)c1csc(-c2oc(CN3CCN(C(=O)c4ccc(Oc5ccccc5)cc4)CC3)nc2-c2ccc(F)cc2)n1 [Example 527],≤ 1000 nM
15,CC(C)NC(=O)c1csc(-c2oc(CN3CCN(C(=O)c4ccc(-c5ccc(O)cc5)cc4)CC3)nc2-c2ccc(F)cc2)n1 [Example 528],≤ 1000 nM
16,Cc1cc(C(=O)N2CCN(Cc3nc(-c4ccc(F)cc4)c(-c4nc(C(=O)NC(C)C)cs4)o3)CC2)ccc1Br [Example 529],> 1000 nM
17,Cc1ccc(C(=O)N2CCN(Cc3nc(-c4ccc(F)cc4)c(-c4nc(C(=O)NC(C)C)cs4)o3)CC2)cc1Br [Example 530],> 1000 nM
18,CC(C)NC(=O)c1csc(-c2oc(CN3CCN(C(=O)Cc4ccc(Br)cc4)CC3)nc2-c2ccc(F)cc2)n1 [Example 531],≤ 1000 nM

# The remaining lines, values ahead:
row,IC50,SMILES
1,≤ 1000 nM,CC(C)NC(=O)c1csc(-c2oc(CN3CCN(C(=O)C4CCCN4C(=O)OC(C)(C)C)CC3)nc2-c2ccc(F)cc2)n1 (stereo not shown) [Example 532]
2,> 1000 nM,CC(C)NC(=O)c1csc(-c2oc(CN3CCN(C(=O)/C=C/c4ccccc4C(F)(F)F)CC3)nc2-c2ccc(F)cc2)n1 [Example 533]
3,≤ 1000 nM,CCOc1ccc2ccccc2c1C(=O)N1CCN(Cc2nc(-c3ccc(F)cc3)c(-c3nc(C(=O)NC(C)C)cs3)o2)CC1 [Example 534]
4,> 1000 nM,CC(C)NC(=O)c1csc(-c2oc(CN3CCN(C(=O)C(NC(=O)OC(C)(C)C)C(C)C)CC3)nc2-c2ccc(F)cc2)n1 (stereo not shown) [Example 535]
5,> 1000 nM,CC(C)NC(=O)c1csc(-c2oc(CN3CCN(C(=O)C(NC(=O)OC(C)(C)C)C(C)C)CC3)nc2-c2ccc(F)cc2)n1 (stereo not shown) [Example 536]
6,> 1000 nM,CC(C)NC(=O)c1csc(-c2oc(CN3CCN(C(=O)CCc4cccc(C(F)(F)F)c4)CC3)nc2-c2ccc(F)cc2)n1 [Example 537]
7,> 1000 nM,CC1=NN(c2ccc(C(=O)N3CCN(Cc4nc(-c5ccc(F)cc5)c(-c5nc(C(=O)NC(C)C)cs5)o4)CC3)cc2)C(=O)C1 [Example 538]
8,> 1000 nM,Cc1nc(Br)sc1C(=O)N1CCN(Cc2nc(-c3ccc(F)cc3)c(-c3nc(C(=O)NC(C)C)cs3)o2)CC1 [Example 539]
9,> 1000 nM,CC(C)NC(=O)c1csc(-c2oc(CN3CCN(C(=O)c4c5ccccc5cc5ccccc45)CC3)nc2-c2ccc(F)cc2)n1 [Example 540]
10,> 1000 nM,CC(C)NC(=O)c1csc(-c2oc(CN3CCN(C(=O)c4cc(C(C)C)cc(C(C)C)c4O)CC3)nc2-c2ccc(F)cc2)n1 [Example 541]
11,> 1000 nM,CC(=O)NC(Cc1ccc(O)cc1)C(=O)N1CCN(Cc2nc(-c3ccc(F)cc3)c(-c3nc(C(=O)NC(C)C)cs3)o2)CC1 (stereo not shown) [Example 542]
12,> 1000 nM,CC(C)NC(=O)c1csc(-c2oc(CN3CCN(C(=O)c4c(Cl)cc(Cl)cc4Cl)CC3)nc2-c2ccc(F)cc2)n1 [Example 543]
13,> 1000 nM,COc1cc(C(=O)N2CCN(Cc3nc(-c4ccc(F)cc4)c(-c4nc(C(=O)NC(C)C)cs4)o3)CC2)c([N+](=O)[O-])cc1OC [Example 544]
14,> 1000 nM,CC(C)NC(=O)c1csc(-c2oc(CN3CCN(C(=O)c4ccc(OCc5ccccc5)cc4)CC3)nc2-c2ccc(F)cc2)n1 [Example 545]
15,> 1000 nM,CC(C)NC(=O)c1csc(-c2oc(CN3CCN(C(=O)CCc4ccccc4Br)CC3)nc2-c2ccc(F)cc2)n1 [Example 546]
16,> 1000 nM,CC(C)NC(=O)c1csc(-c2oc(CN3CCN(C(=O)CCc4cccc(Br)c4)CC3)nc2-c2ccc(F)cc2)n1 [Example 547]
17,> 1000 nM,CC(C)NC(=O)c1csc(-c2oc(CN3CCN(C(=O)C4CCCCN4C(=O)OC(C)(C)C)CC3)nc2-c2ccc(F)cc2)n1 (stereo not shown) [Example 548]
18,> 1000 nM,CC(C)NC(=O)c1csc(-c2oc(CN3CCN(C(=O)c4ccc(Oc5cccc(O)c5)cc4)CC3)nc2-c2ccc(F)cc2)n1 [Example 549]
19,> 1000 nM,COc1ccc2cc(C(C)C(=O)N3CCN(Cc4nc(-c5ccc(F)cc5)c(-c5nc(C(=O)NC(C)C)cs5)o4)CC3)ccc2c1 (stereo not shown) [Example 550]
20,> 1000 nM,CC(C)NC(=O)c1csc(-c2oc(CN3CCN(C(=O)C4CN(C(=O)OC(C)(C)C)CCN4)CC3)nc2-c2ccc(F)cc2)n1 (stereo not shown) [Example 551]
21,> 1000 nM,CC(C)NC(=O)c1csc(-c2oc(CN3CCN(C(=O)C4CN(C(=O)OC(C)(C)C)CCN4)CC3)nc2-c2ccc(F)cc2)n1 (stereo not shown) [Example 552]
22,> 1000 nM,COc1ccc(Br)c(C(=O)N2CCN(Cc3nc(-c4ccc(F)cc4)c(-c4nc(C(=O)NC(C)C)cs4)o3)CC2)c1 [Example 553]
23,> 1000 nM,CC(C)NC(=O)c1csc(-c2oc(CN3CCN(C(=O)C4CC(O)CN4C(=O)OC(C)(C)C)CC3)nc2-c2ccc(F)cc2)n1 (stereo not shown) [Example 554]
24,> 1000 nM,CC(C)NC(=O)c1csc(-c2oc(CN3CCN(C(=O)C(C(C)C)N(C)C(=O)OC(C)(C)C)CC3)nc2-c2ccc(F)cc2)n1 (stereo not shown) [Example 555]
